Source: the supplement of paper PMC11208160

Assay: recombinant UMI read abundance after kanamycin selection (control-corrected) (log10(CPM+1)); higher = more efficient recombination; extreme values may be limits of the assay; sequences stand for … in AGTGCAGAGAAAATCGGCCAGTTTTCTCTGCCTGCAGTCCGCATGCCGTGGGACCCCTTGGGTTCTAACCTGTTGCCTAGATTTATGCAGCGGACTGCCTTTCTCCCAAAGTGATAAACCGG…AGGTTGGTTTCACT; site = the 11-nt donor
Outline: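 In Escherichia coli, a pool of donor and donor-binding-loop pairs, each with a 12-nt UMI, was tested for the IS621 bridge recombinase. Plating was on IPTG (0.07 mM) plus kanamycin, or without selection, in two replicates. Recombinant UMIs were amplified by PCR across the donor–target junction and sequenced, and counts were reported as log10(CPM+1) after averaging and control-derived scaling.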
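Note: IS621 bridge recombinase in Escherichia coli cells against a fixed T5 target plasmid.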

First: TCATAGACATGGACCGGTTTTCCCGGTAATCCGTATTTGCG (site TCAGAGACTCG)
Second: TCATAGACATGGACCGGTTTTCCCGGTAATCCGTATTTGCG (site TCATAGACTCG)
The “recombinant UMI read abundance (log10)” value of the first is lower: 0.00296 for the first, 1.87 for the second.

First: TCATAGACATGGACCGGTTTTCCCGGTAATCCGTATTTGGA (site TCATAGACTTC)
Second: TCATCAGCATGGACCGGTTTTCCCGGTAATCCGTATTTGAT (site TCATCAGCTAT)
The “recombinant UMI read abundance (log10)” value of the first is higher: 0.712 for the first, 0.316 for the second.

First: TCATCTCCATGGACCGGTTTTCCCGGTAATCCGTATTTGTC (site TCATCTCCTGA)
Second: TCATGATCATGGACCGGTTTTCCCGGTAATCCGTATTTGCC (site TCATGATCTGG)
The “recombinant UMI read abundance (log10)” value of the first is lower: 0 for the first, 0.807 for the second.

Compared with “TCATGATCATGGACCGGTTTTCCCGGTAATCCGTATTTGGA (site TCATGATCTTC)”, “TCCAACCCATGGACCGGTTTTCCCGGTAATCCGTATTTGCC (site TCCAACCCTGG)” is lower in “recombinant UMI read abundance (log10)” value: 1.32 for the first, 0 for the second.

“TCCAACGCATGGACCGGTTTTCCCGGTAATCCGTATTTGAT (site TCCAACGCTAT)” and “TCCACACCATGGACCGGTTTTCCCGGTAATCCGTATTTGAG (site TCCACACCTCT)” are within 0.2 log units of each other in “recombinant UMI read abundance (log10)” value: 0 for the first, 0.0221 for the second.

“TCCACAGCATGGACCGGTTTTCCCGGTAATCCGTATTTGCG (site TCCACAGCTCG)” and “TCCACAGCATGGACCGGTTTTCCCGGTAATCCGTATTTGCG (site TCCACCGCTCG)” are within 0.2 log units of each other in “recombinant UMI read abundance (log10)” value: 0 for the first, 0.00793 for the second.

“TCCACAGCATGGACCGGTTTTCCCGGTAATCCGTATTTGCG (site TCCACGGCTCG)” and “TCCACAGCATGGACCGGTTTTCCCGGTAATCCGTATTTGCG (site TCCACTGCTCG)” are within 0.2 log units of each other in “recombinant UMI read abundance (log10)” value: 0.0203 for the first, 0.0252 for the second.

“TCCACCCCATGGACCGGTTTTCCCGGTAATCCGTATTTGCG (site TCCACCACTCG)” and “TCCACCCCATGGACCGGTTTTCCCGGTAATCCGTATTTGCG (site TCCACCCCTCG)” are within 0.2 log units of each other in “recombinant UMI read abundance (log10)” value: 0.00655 for the first, 0.0148 for the second.

“TCCACCCCATGGACCGGTTTTCCCGGTAATCCGTATTTGCG (site TCCACCGCTCG)” and “TCCACCCCATGGACCGGTTTTCCCGGTAATCCGTATTTGCG (site TCCACCTCTCG)” are within 0.2 log units of each other in “recombinant UMI read abundance (log10)” value: 0.0184 for the first, 0.00748 for the second.

“TCCACCGCATGGACCGGTTTTCCCGGTAATCCGTATTTGAG (site TCCACCGCTCA)” and “TCCACCGCATGGACCGGTTTTCCCGGTAATCCGTATTTGAG (site TCCACCGCTCC)” are within 0.2 log units of each other in “recombinant UMI read abundance (log10)” value: 0.0207 for the first, 0.0231 for the second.

“TCCACCGCATGGACCGGTTTTCCCGGTAATCCGTATTTGAG (site TCCACCGCTCG)” and “TCCACCGCATGGACCGGTTTTCCCGGTAATCCGTATTTGAG (site TCCACCGCTCT)” are within 0.2 log units of each other in “recombinant UMI read abundance (log10)” value: 0.0211 for the first, 0.0235 for the second.

“TCCACCGCATGGACCGGTTTTCCCGGTAATCCGTATTTGCA (site TCCACCGCTAG)” and “TCCACCGCATGGACCGGTTTTCCCGGTAATCCGTATTTGCA (site TCCACCGCTCG)” are within 0.2 log units of each other in “recombinant UMI read abundance (log10)” value: 0.00852 for the first, 0 for the second.

“TCCACCGCATGGACCGGTTTTCCCGGTAATCCGTATTTGCA (site TCCACCGCTGG)” and “TCCACCGCATGGACCGGTTTTCCCGGTAATCCGTATTTGCA (site TCCACCGCTTG)” are within 0.2 log units of each other in “recombinant UMI read abundance (log10)” value: 0 for the first, 0.167 for the second.

“TCCACCGCATGGACCGGTTTTCCCGGTAATCCGTATTTGTG (site TCCACCGCTCA)” and “TCCACCGCATGGACCGGTTTTCCCGGTAATCCGTATTTGTG (site TCCACCGCTCC)” are within 0.2 log units of each other in “recombinant UMI read abundance (log10)” value: 0.0465 for the first, 0.00628 for the second.

“TCCACCGCATGGACCGGTTTTCCCGGTAATCCGTATTTGTG (site TCCACCGCTCG)” and “TCCACCGCATGGACCGGTTTTCCCGGTAATCCGTATTTGTG (site TCCACCGCTCT)” are within 0.2 log units of each other in “recombinant UMI read abundance (log10)” value: 0.00762 for the first, 0.0682 for the second.

“TCCACTGCATGGACCGGTTTTCCCGGTAATCCGTATTTGCG (site TCCACAGCTCG)” and “TCCACTGCATGGACCGGTTTTCCCGGTAATCCGTATTTGCG (site TCCACCGCTCG)” are the same in “recombinant UMI read abundance (log10)” value: 0 for the first, 0 for the second.

“TCCACTGCATGGACCGGTTTTCCCGGTAATCCGTATTTGCG (site TCCACGGCTCG)” and “TCCACTGCATGGACCGGTTTTCCCGGTAATCCGTATTTGCG (site TCCACTGCTCG)” are within 0.2 log units of each other in “recombinant UMI read abundance (log10)” value: 0.00658 for the first, 0.0111 for the second.

“TCCAGCACATGGACCGGTTTTCCCGGTAATCCGTATTTGTG (site TCCAGCACTCA)” and “TCCAGCGCATGGACCGGTTTTCCCGGTAATCCGTATTTGCG (site TCCAACGCTCG)” are within 0.2 log units of each other in “recombinant UMI read abundance (log10)” value: 0.0248 for the first, 0 for the second.

“TCCAGCGCATGGACCGGTTTTCCCGGTAATCCGTATTTGCG (site TCCACCGCTCG)” and “TCCAGCGCATGGACCGGTTTTCCCGGTAATCCGTATTTGCG (site TCCAGCGCTCG)” are within 0.2 log units of each other in “recombinant UMI read abundance (log10)” value: 0.0119 for the first, 0.0428 for the second.

“TCCAGCGCATGGACCGGTTTTCCCGGTAATCCGTATTTGCG (site TCCATCGCTCG)” and “TCCAGTTCATGGACCGGTTTTCCCGGTAATCCGTATTTGCC (site TCCAATTCTGG)” are within 0.2 log units of each other in “recombinant UMI read abundance (log10)” value: 0.00909 for the first, 0 for the second.

“TCCAGTTCATGGACCGGTTTTCCCGGTAATCCGTATTTGCC (site TCCACTTCTGG)” and “TCCAGTTCATGGACCGGTTTTCCCGGTAATCCGTATTTGCC (site TCCAGTTCTGG)” are the same in “recombinant UMI read abundance (log10)” value: 0 for the first, 0 for the second.

“TCCAGTTCATGGACCGGTTTTCCCGGTAATCCGTATTTGCC (site TCCATTTCTGG)” and “TCCATAACATGGACCGGTTTTCCCGGTAATCCGTATTTGGG (site TCCATAACTCC)” are within 0.2 log units of each other in “recombinant UMI read abundance (log10)” value: 0 for the first, 0.008 for the second.

“TCCATGCCATGGACCGGTTTTCCCGGTAATCCGTATTTGAT (site TCCATGCCTAT)” and “TCCATTCCATGGACCGGTTTTCCCGGTAATCCGTATTTGAT (site TCCATTCCTAT)” are the same in “recombinant UMI read abundance (log10)” value: 0 for the first, 0 for the second.

“TCCCATACATGGACCGGTTTTCCCGGTAATCCGTATTTGCG (site TCCCATACTCG)” and “TCCCATTCATGGACCGGTTTTCCCGGTAATCCGTATTTGCC (site TCCAATTCTGG)” are within 0.2 log units of each other in “recombinant UMI read abundance (log10)” value: 0.00752 for the first, 0 for the second.

“TCCCATTCATGGACCGGTTTTCCCGGTAATCCGTATTTGCC (site TCCCATTCTGG)” and “TCCCATTCATGGACCGGTTTTCCCGGTAATCCGTATTTGCC (site TCCGATTCTGG)” are the same in “recombinant UMI read abundance (log10)” value: 0 for the first, 0 for the second.

“TCCCATTCATGGACCGGTTTTCCCGGTAATCCGTATTTGCC (site TCCTATTCTGG)” and “TCCCCAACATGGACCGGTTTTCCCGGTAATCCGTATTTGTT (site TCCCCAACTAA)” are within 0.2 log units of each other in “recombinant UMI read abundance (log10)” value: 0 for the first, 0.0153 for the second.

“TCCCGCTCATGGACCGGTTTTCCCGGTAATCCGTATTTGCC (site TCCCGCTCTGG)” and “TCCCTGACATGGACCGGTTTTCCCGGTAATCCGTATTTGGA (site TCCCTGACTTC)” are within 0.2 log units of each other in “recombinant UMI read abundance (log10)” value: 0 for the first, 0.0122 for the second.

“TCCGATTCATGGACCGGTTTTCCCGGTAATCCGTATTTGAG (site TCCGATTCTCT)” and “TCCGATTCATGGACCGGTTTTCCCGGTAATCCGTATTTGCC (site TCCAATTCTGG)” are within 0.2 log units of each other in “recombinant UMI read abundance (log10)” value: 0.00583 for the first, 0 for the second.

“TCCGATTCATGGACCGGTTTTCCCGGTAATCCGTATTTGCC (site TCCCATTCTGG)” and “TCCGATTCATGGACCGGTTTTCCCGGTAATCCGTATTTGCC (site TCCGATTCTGG)” are the same in “recombinant UMI read abundance (log10)” value: 0 for the first, 0 for the second.

“TCCGATTCATGGACCGGTTTTCCCGGTAATCCGTATTTGCC (site TCCTATTCTGG)” and “TCCGCAGCATGGACCGGTTTTCCCGGTAATCCGTATTTGAA (site TCCGCAGCTTT)” are within 0.2 log units of each other in “recombinant UMI read abundance (log10)” value: 0 for the first, 0.0198 for the second.

“TCCGCATCATGGACCGGTTTTCCCGGTAATCCGTATTTGGG (site TCCGCATCTCC)” and “TCCGCGACATGGACCGGTTTTCCCGGTAATCCGTATTTGTA (site TCCGCGACTTA)” are within 0.2 log units of each other in “recombinant UMI read abundance (log10)” value: 0.00533 for the first, 0.0159 for the second.

“TCCGCTACATGGACCGGTTTTCCCGGTAATCCGTATTTGTC (site TCCGCTACTGA)” and “TCCGGGCCATGGACCGGTTTTCCCGGTAATCCGTATTTGGG (site TCCGGGCCTCC)” are within 0.2 log units of each other in “recombinant UMI read abundance (log10)” value: 0 for the first, 0.0269 for the second.

“TCCTACGCATGGACCGGTTTTCCCGGTAATCCGTATTTGAA (site TCCTACGCTTT)” and “TCCTACTCATGGACCGGTTTTCCCGGTAATCCGTATTTGCA (site TCATACTCTTG)” are within 0.2 log units of each other in “recombinant UMI read abundance (log10)” value: 0.0256 for the first, 0 for the second.

“TCCTACTCATGGACCGGTTTTCCCGGTAATCCGTATTTGCA (site TCCTACTCTTG)” and “TCCTACTCATGGACCGGTTTTCCCGGTAATCCGTATTTGCA (site TCGTACTCTTG)” are the same in “recombinant UMI read abundance (log10)” value: 0 for the first, 0 for the second.

“TCCTACTCATGGACCGGTTTTCCCGGTAATCCGTATTTGCA (site TCTTACTCTTG)” and “TCCTAGGCATGGACCGGTTTTCCCGGTAATCCGTATTTGGT (site TACTAGGCTAC)” are within 0.2 log units of each other in “recombinant UMI read abundance (log10)” value: 0 for the first, 0.0272 for the second.

“TCCTAGGCATGGACCGGTTTTCCCGGTAATCCGTATTTGGT (site TCCTAGGCTAC)” and “TCCTAGGCATGGACCGGTTTTCCCGGTAATCCGTATTTGGT (site TGCTAGGCTAC)” are within 0.2 log units of each other in “recombinant UMI read abundance (log10)” value: 0.0125 for the first, 0.0178 for the second.

“TCCTAGGCATGGACCGGTTTTCCCGGTAATCCGTATTTGGT (site TTCTAGGCTAC)” and “TCCTGCCCATGGACCGGTTTTCCCGGTAATCCGTATTTGCT (site TCCTGCCCTAG)” are within 0.2 log units of each other in “recombinant UMI read abundance (log10)” value: 0.0363 for the first, 0 for the second.

For “TCCTGGCCATGGACCGGTTTTCCCGGTAATCCGTATTTGTG (site TCCTGGCCTCA)”, the “recombinant UMI read abundance (log10)” value was 0.00405.
